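Values below derive from 48-hour exposures of cells grown in 96-well plates, with endpoints linearly interpolated between the two concentrations bracketing the appropriate inhibition level. Definition used: TGI = concentration required for complete inhibition of growth.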

Test systems include ACHN renal; CCRF-CEM leukemia; EKVX NSCLC; LOX IMVI melanoma; MDA-MB-435; NCI-H23 lung; OVCAR-3 ovarian; OVCAR-8 ovarian; PC-3 prostate; RXF 393 renal; UACC-62 melanoma; A498 renal.
Common to all, as to experiment: growth of human tumour cells (NCI), 48 h

Take `COc1cccc(O)c1-c1cc(=O)c2c(O)c(OC)c(OC)c(OC)c2o1`: the TGI with ACHN renal is above 100 µM; in the test on CCRF-CEM leukemia it was above 100 µM; with EKVX NSCLC, above 100 µM; in the test on LOX IMVI melanoma it was above 100 µM; with MDA-MB-435, 55.4 µM; in the test with NCI-H23 lung it was 85.5 µM. Also, the TGI was 66.3 µM in the test on OVCAR-3 ovarian; above 100 µM in the test with OVCAR-8 ovarian; 66.7 µM in the test with PC-3 prostate; 42.9 µM in the test with RXF 393 renal; 32.8 µM in the test with UACC-62 melanoma.
In the case of `Cc1nnc(NS(=O)(=O)c2ccc(N=Nc3c(O)c(C(=O)O)cc4ccccc34)cc2)s1`, the TGI with ACHN renal, in the test with CCRF-CEM leukemia, with EKVX NSCLC, with MDA-MB-435, in the test with NCI-H23 lung and with OVCAR-3 ovarian was above 100 µM in each case. For the same molecule, the TGI in the test with OVCAR-8 ovarian, in the test on PC-3 prostate, in the test on RXF 393 renal and in the test on UACC-62 melanoma was above 100 µM in each case.
With `CCOC(=O)n1c(=O)nc2c3c(ncn21)Oc1c(c(-c2ccccc2)nn1-c1ccccc1)C3c1ccc(Cl)cc1` (centres undefined), the TGI was determined as 3.85 µM in the test on A498 renal; 3.09 µM in the test with ACHN renal; 2.72 µM in the test with CCRF-CEM leukemia; 2.78 µM in the test with LOX IMVI melanoma; 3.03 µM in the test with MDA-MB-435; 3.17 µM in the test with NCI-H23 lung. In addition, the TGI in the test with OVCAR-3 ovarian was 2.79 µM; in the test with OVCAR-8 ovarian, 3.06 µM; with PC-3 prostate, 3.1 µM; in the test with RXF 393 renal, 2.91 µM; with UACC-62 melanoma, 3.1 µM.
As to `CN(C)CCC(C#N)(c1ccccc1)c1ccccc1`, the TGI in the test with A498 renal, in the test with ACHN renal, in the test on EKVX NSCLC, with MDA-MB-435, in the test on NCI-H23 lung and in the test with OVCAR-3 ovarian was above 100 µM in each case. For the same molecule, the TGI in the test with OVCAR-8 ovarian, with PC-3 prostate, in the test with RXF 393 renal and in the test with UACC-62 melanoma was above 100 µM each time.
In the case of `COCc1nc(C#N)c(N)o1`, the TGI in the test on ACHN renal, in the test on CCRF-CEM leukemia, in the test with EKVX NSCLC, in the test with LOX IMVI melanoma, with MDA-MB-435 and in the test on NCI-H23 lung was above 10 µM throughout. In addition, the TGI with OVCAR-8 ovarian, with PC-3 prostate, in the test with RXF 393 renal and in the test on UACC-62 melanoma was above 10 µM each time.
Turning to `NCCCc1nonc1C(=O)O`, the TGI in the test with ACHN renal, with CCRF-CEM leukemia, in the test on EKVX NSCLC, with LOX IMVI melanoma, in the test with MDA-MB-435 and with NCI-H23 lung was above 100 µM each time. For the same molecule, the TGI in the test with OVCAR-3 ovarian, in the test with OVCAR-8 ovarian, in the test with PC-3 prostate, in the test with RXF 393 renal and in the test with UACC-62 melanoma was above 100 µM in each case.
For the molecule `C/C(=C\COP(=O)(O)CP(=O)(O)O)CC/C=C(\C)CNc1ccccc1`, the TGI in the test on ACHN renal was above 100 µM; in the test with CCRF-CEM leukemia it was above 100 µM; in the test with EKVX NSCLC, 30.3 µM; in the test with LOX IMVI melanoma it was above 100 µM; in the test on MDA-MB-435, above 100 µM; in the test on NCI-H23 lung, above 100 µM. Further, the TGI in the test on OVCAR-3 ovarian, with OVCAR-8 ovarian, with PC-3 prostate, with RXF 393 renal and in the test with UACC-62 melanoma was above 100 µM in each case.
On to `CC(C(=O)NCNC(=O)c1ccccc1)C(=O)NCc1ccccc1` (centres undefined), for which the TGI with ACHN renal, in the test on CCRF-CEM leukemia, with EKVX NSCLC, in the test on MDA-MB-435, with NCI-H23 lung and in the test on OVCAR-8 ovarian was above 100 µM in each case. Besides, the TGI with PC-3 prostate, in the test with RXF 393 renal and in the test on UACC-62 melanoma was above 100 µM each time.
For the molecule `CC(C)=CCN1c2ccccc2[C@@]2(CC=C(C)C)CCN(C)[C@@H]12`, the TGI is above 100 µM with ACHN renal; above 100 µM with CCRF-CEM leukemia; 64.3 µM in the test on EKVX NSCLC; 34 µM with LOX IMVI melanoma; 54.3 µM with MDA-MB-435; above 100 µM in the test with NCI-H23 lung. Moreover, the TGI is 57.3 µM in the test on OVCAR-3 ovarian; 90.2 µM in the test with OVCAR-8 ovarian; above 100 µM with PC-3 prostate; above 100 µM in the test with RXF 393 renal; 34.8 µM in the test with UACC-62 melanoma.
In the case of `CC(=O)OC(C(=O)NNC(=O)OC(C)(C)C)c1ccccc1` (centres undefined), the TGI in the test with ACHN renal, in the test on EKVX NSCLC, in the test on MDA-MB-435, with NCI-H23 lung, with OVCAR-3 ovarian and in the test on OVCAR-8 ovarian was above 100 µM each time. For the same molecule, the TGI in the test with PC-3 prostate, in the test with RXF 393 renal and with UACC-62 melanoma was above 100 µM in each case.
On to `Cc1c(S(=O)(=O)/N=C(\NO)Nc2ccc(Cl)cc2)sc2ccc(Cl)cc12`, for which the TGI was 28.5 µM in the test with ACHN renal; above 100 µM with CCRF-CEM leukemia; 25.1 µM in the test with EKVX NSCLC; 32.2 µM with LOX IMVI melanoma; 33.7 µM in the test on MDA-MB-435; 33.6 µM in the test on NCI-H23 lung. Moreover, the TGI was found to be 25.8 µM with OVCAR-3 ovarian; 32.2 µM with OVCAR-8 ovarian; 31.1 µM in the test with PC-3 prostate; 47.1 µM with RXF 393 renal; 29.8 µM in the test with UACC-62 melanoma.

For the origin of these results see PubChem BioAssay (NCI).
